Reference: ChEMBL document CHEMBL1151776, “Identification of aquaporin 4 inhibitors using in vitro and in silico methods” (Bioorg Med Chem, 2009)

Assays:
Type in all cases: cell-based
[1] = system: Oocyte; experiment: Inhibition of human aquaporin 4 M23 isoform expressed in Xenopus laevis oocytes at 20 uM
[2] = (§1) Inhibition of human aquaporin 4 M23 isoform expressed in Xenopus laevis oocytes; settings: oocyte
[3] = system: Oocyte; experiment: as §1

SMILES | inhibition [1] [%] | IC50 [2] [µM] | Imax [3] [%]
COc1ccccc1OCC(O)CO (centres undefined) | 34 |  | 
CN(C)CCc1c[nH]c2ccc(Cn3cncn3)cc12 [RIZATRIPTAN] | 52 | 2.9 | 54
O=C(Nc1nncs1)c1cccnc1 | 67 | 3.1 | 73
O=S(=O)(Cc1ccccc1)Nc1nccs1 | 45 |  | 
O=C(Nc1ccccc1)c1cccnc1 | 26 |  | 
CC(C)NC[C@H](O)COc1cccc2ccccc12 | 26 |  | 
OCC(O)COCc1ccccc1 (centres undefined) | 11 |  | 
CNS(=O)(=O)Cc1ccc2[nH]cc(CCN(C)C)c2c1 [SUMATRIPTAN] | 54 | 11 | 52
NS(=O)(=O)c1ccc(Cl)s1 | 18 |  | 
CCCC(C)C1(CC)C(=O)NC(=O)NC1=O (centres undefined) | 9 |  | 
N[C@@H]1CONC1=O | 3 |  | 
O=C(Nc1nccs1)c1cccnc1 | 30 |  | 
NC(=O)NCCC[C@H](N)C(=O)O | 0 |  | 
CC/C(=C(\c1ccccc1)c1ccc(OCCN(C)C)cc1)c1ccccc1 | 71 |  | 
CN1CCc2cccc3c2[C@H]1Cc1ccc(O)c(O)c1-3 | 40 |  | 
Oc1cnc(Nc2nc3ccccc3o2)[nH]1 | 44 |  | 
NC(=O)c1nc[nH]c1C(N)=O | 23 |  | 
NS(=O)(=O)c1cc(Cl)sc1Cl | 11 |  | 
